Measurements reported in patent EP1455919B1, “IODINE EXTRACTION METHOD” (Commissariat à l'Énergie Atomique et aux Énergies …, priority 2001, dated 2003).

Legend:
[1] = Liquid-liquid extraction of iodine from nitric acid solution into the organic solvent (distribution coefficient Dex, gamma spectrometry); format: physicochemical; conditions: equal volumes; for coefficient de distribution Dex de l'iode: first aqueous solution HNO3 3 mol/L, 125I 1500 kBq/L, ratio organic/aqueous iodine concentration at equilibrium
Description: Dans un premier temps, on met en contact, dans un tube en polypropylène étanche, une première solution aqueuse d'acide nitrique de concentration 3 mol/L contenant de l'iode ^125I, à une teneur de 1500 kBq/L avec une phase organique contenant du 1,2-NPHE. Les volumes de la solution aqueuse et de la phase organique sont égaux. L'ensemble est agité entre 10 minutes et une heure de façon douce par un dispositif approprié et ultérieurement mis dans une centrifugeuse pour une durée de 10 minutes à 4000 rpm.
On mesure le coefficient de distribution Dex de l'iode entre la première solution aqueuse et la phase organique, ce coefficient correspondant au rapport de la concentration en iode en phase organique à la concentration en iode en solution aqueuse à l'équilibre. Les concentrations en iode sont mesurées par spectrométrie gamma.

[2] = Re-extraction of iodine from the loaded organic solvent into aqueous sodium hydroxide solution (distribution coefficient Dréex); format: physicochemical
Text: Dans un deuxième temps, on met en contact la phase organique après extraction et après élimination de la première solution aqueuse, avec une deuxième solution aqueuse de réextraction, ladite solution étant une solution aqueuse de soude, les volumes de phase organique et de solution de réextraction étant sensiblement égaux.
Différents essais ont été effectués en faisant varier la concentration en soude de la deuxième solution aqueuse. On mesure les coefficients de distribution Dréex de l'iode, qui pour la réextraction correspond au rapport de la concentration en iode dans la seconde solution aqueuse à la concentration en iode en phase organique.

| Structure (SMILES) | coefficient de distribution Dex de l'iode [1] | Dréex ([2]; soude 0,1 mol/L (10^-1 mol/L)) | further results |
| --- | --- | --- | --- |
| CCCCCC(=O)O [Acide Hexanoique, acide hexanoïque, reference compound] | 4,1 | 0,04 |  |
| CCCCOC(C)=O [Acétate de butyle, acétate de butyle, reference compound] | 6,6 | 0,014 |  |
| CC(=O)CC(C)C [4-méthyl-1,2-pentanone, reference compound] | 9,1 | 0,012 |  |
| CC(C)CCCCCCCCCCO [Isotridécanol, isotridécanol, reference compound] | 5,2 | 0,028 |  |
| CC(C)c1cccc(C(C)C)c1 [1,3-diisopropylbenzène] | 2,3 | 2,3 |  |
| CCCCCCc1ccccc1 [hexylbenzène] | 2.7 | 11.6 |  |
| CCCCCCCCO [Octanol, octanol, reference compound] | 8,7 | 0,023 |  |
| CCCCCCCCOc1ccccc1[N+](=O)[O-] [1,2-NPOE, 1,2-nitrophényloctyléther] | 2,9 | 1,7 |  |
| CCCCCCOc1ccccc1[N+](=O)[O-] [1,2-NPHE, 1,2-nitrophénylhexyléther] | 3 | 5,7 | % d'extraction ([1]; corresponds to Dex of 3, HNO3 3 mol/L): 75%; Dréex ([2]; soude 0,5 mol/L): 6,6; Dréex ([2]; soude 0,6 mol/L): 7,6; Dréex ([2]; soude 1,5 mol/L): 6,6; Dréex ([2]; soude 1 mol/L): 7,0; Dréex ([2]; soude 2 mol/L, ratio aqueous/organic): 6,3; Dréex ([2]; soude 5.10^-2 mol/L): 5,5; Dréex ([2]; soude 5.10^-3 mol/L): 0,04; Dréex ([2]; soude 10^-1 mol/L with borohydrure de sodium 10^-3 mol/L): 5,8; Dréex ([2]; soude 10^-2 mol/L): 4,9; Dréex ([2]; soude 10^-3 mol/L): 0,02; Dréex ([2]; soude 10^-4 mol/L): 0 |
| CCCCCC [hexane] | 1,5 | 4,2 |  |
